Our source for the IC50 values is US12528816B2, “Substituted imidazo [1,2-b] pyridazines and [1, 2, 4] triazolo [ 4,3-b] pyridazines as camkii inhibitors” (Cardurion Pharmaceuticals, INC., priority 2020, dated 2026).

Some results are limits rather than exact numbers.

The first assay deals with T1, human CaMKIIδ (Homo sapiens, UniProt Q13557).
T1 construct: Full-length, glutathione-S-transferase(GST)-tagged, human CaMKIIδ was purchased from Carna Biosciences; purchased Carna Biosciences (CaMKIIδ); Wako Pure Chemical Industries (calmodulin) 02-111
Description: Evaluation of in vitro CaMKII inhibitory activity (binding assay, TR-FRET). The note with it: human CaMKIIδ, TR-FRET binding assay; class symbols A/B/C; read-out: Act (CaMKII inhibitory activity, binding assay). Summed up: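 Inhibitors, in eight concentrations of 4-fold dilution, were incubated 1 h at room temperature with a protein–fluorescent probe premix preformed 30 min on ice, containing calmodulin and terbium anti-GST antibody. Displacement read by TR-FRET in duplicate; IC50 by logistic fitting.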
Regarding `C[C@@H](Cn1cnnn1)Oc1cc(-c2ccc3ncc(-c4cccc(OCC5CCC5)c4C#N)n3n2)ccc1F` [compound 210], the IC50 is less than 10 nM.

Regarding `C[C@@H](Cn1cnnn1)Oc1cc(-c2ccc3ncc(-c4cccc(OCCN5C(=O)CCC5=O)c4C#N)n3n2)ccc1F` [compound 211], the IC50 is less than 10 nM.

For the molecule `COCCOCCOCCOc1cccc(-c2cnc3ccc(-c4ccc(F)c(O[C@@H](C)Cn5cnnn5)c4)nn23)c1C#N` [compound 212], the IC50 is less than 10 nM.

In the case of `CC(C)Oc1cccc(-c2cnc3ccc(-c4ccc(F)c(O[C@@H](C)Cn5cnnn5)c4)nn23)c1C#N` [compound 213], the IC50 was less than 10 nM.

With `C[C@@H](Cn1cnnn1)Oc1cc(-c2ccc3ncc(-c4cccc(OCC(F)(F)F)c4C#N)n3n2)ccc1F` [compound 214], the IC50 is less than 10 nM.

With `C[C@@H](Cn1cnnn1)Oc1cc(-c2ccc3ncc(-c4cccc(OCCN5CCC5)c4C#N)n3n2)ccc1F` [compound 215], the IC50 was less than 10 nM.

Take `C[C@@H](Cn1cnnn1)Oc1cc(-c2ccc3ncc(-c4cccc(OCC(=O)O)c4C#N)n3n2)ccc1F` [compound 216]: the IC50 is less than 10 nM.

In the case of `C[C@@H](Cn1cnnn1)Oc1cc(-c2ccc3ncc(-c4cccc(OCCCC(=O)O)c4C#N)n3n2)ccc1F` [compound 217], the IC50 was less than 10 nM.

As to `C[C@@H](Cn1cnnn1)Oc1cc(-c2ccc3ncc(-c4cccc[n+]4[O-])n3n2)ccc1F` [compound 218], the IC50 lay within 10 to 100 nM.

Take `COc1ncc(C#N)cc1-c1cnc2ccc(-c3ccc(F)c(O[C@@H](C)Cn4cnnn4)c3)nn12` [compound 219]: the IC50 was less than 10 nM.

In the case of `C[C@@H](Cn1cnnn1)Oc1cc(-c2ccc3ncc(-c4cc(C#N)c[nH]c4=O)n3n2)ccc1F` [compound 220], the IC50 is less than 10 nM.

Consider `C[C@@H](Cn1cnnn1)Oc1cc(-c2ccc3ncc(-c4cc(C#N)cn(C)c4=O)n3n2)ccc1F` [compound 221], for which the IC50 is less than 10 nM.

`C[C@@H](Cn1cnnn1)Oc1cc(-c2ccc3ncc(-c4cn(CCCO)nc4C#N)n3n2)ccc1F` [compound 222]: the IC50 is 10 to 100 nM.

Regarding `COCCCn1ncc(-c2cnc3ccc(-c4ccc(F)c(O[C@@H](C)Cn5cnnn5)c4)nn23)c1C#N` [compound 223, 4-[6-(4-fluoro-3-{[(2S)-1-(1H-tetrazol-1-yl)propan-2-yl]oxy}phenyl)imidazo[1,2-b]pyridazin-3-yl]-1-(3-methoxypropyl)-1H-pyrazole-5-carbonitrile], the IC50 is less than 10 nM.

For the molecule `COCCCOC(=O)c1c(-c2cnc3ccc(-c4ccc(F)c(O[C@@H](C)Cn5cnnn5)c4)nn23)cnn1CCCOC` [compound 224], the IC50 is more than 100 nM.

In the case of `C[C@@H](Cn1cnnn1)Oc1cc(-c2ccc3ncc(-c4cnn(CCCO)c4C#N)n3n2)ccc1F` [compound 225], the IC50 is less than 10 nM.

Consider `C[C@@H](Cn1cnnn1)Oc1cc(-c2ccc3ncc(-c4cccc(OCC(C)(C)C#N)c4C#N)n3n2)ccc1F` [compound 226, 2-(2-cyano-2,2-dimethylethoxy)-6-[6-(4-fluoro-3-{[(2S)-1-(1H-tetrazol-1-yl)propan-2-yl]oxy}phenyl)imidazo[1,2-b]pyridazin-3-yl]benzonitrile], for which the IC50 is less than 10 nM.

With `C[C@@H](Cn1cnnn1)Oc1cc(-c2ccc3ncc(-c4ccccn4)n3n2)ccc1F` [compound 227, 2-[6-(4-fluoro-3-{[(2S)-1-(1H-tetrazol-1-yl)propan-2-yl]oxy}phenyl)imidazo[1,2-b]pyridazin-3-yl]pyridine], the IC50 was less than 10 nM.

Consider `C[C@@H](Cn1cnnn1)Oc1cc(-c2ccc3ncn(-c4cccc(C(=O)N(C)C)c4C#N)c3n2)ccc1F` [compound 228], for which the IC50 was more than 100 nM.

For `COC1CN(C(=O)c2cccc(-n3cnc4ccc(-c5ccc(F)c(O[C@@H](C)Cn6cnnn6)c5)nc43)c2C#N)C1` [compound 229, 2-[5-(4-fluoro-3-{[(2S)-1-(1H-tetrazol-1-yl)propan-2-yl]oxy}phenyl)-3H-imidazo[4,5-b]pyridin-3-yl]-6-(3-methoxyazetidine-1-carbonyl)benzonitrile], the IC50 was in the range of 10 to 100 nM.

As for `COCCCn1ncc(-c2cnc3ccc(-c4ccc(F)c(O[C@@H](C)Cn5cnnn5)c4)nn23)c1C(=O)O` [compound 230], the IC50 was more than 100 nM.

Still in this assay, the particulars now being: in vitro CaMKII inhibitory activity (binding assay), human CaMKIIδ; read-out: Act.
`C[C@@H](Cn1cnnn1)Oc1cc(-c2ccc3ncc(-c4nccc(NC(=O)OC(C)(C)C)c4C#N)n3n2)ccc1F` [compound 231]: the IC50 was less than 10 nM.

For `C[C@@H](Cn1cnnn1)Oc1cc(-c2ccc3ncc(-c4nccc(N(C(=O)OC(C)(C)C)C(=O)OC(C)(C)C)c4C#N)n3n2)ccc1F` [compound 232], the IC50 was less than 10 nM.

Regarding `C[C@@H](Cn1cnnn1)Oc1cc(-c2ccc3ncc(-c4ccnc(N)c4C#N)n3n2)ccc1F` [compound 233], the IC50 was less than 10 nM.

Take `C[C@@H](Cn1cnnn1)Oc1cc(-c2ccc3ncc(-c4nccc(N)c4C#N)n3n2)ccc1F` [compound 234]: the IC50 is less than 10 nM.

For the molecule `CNC(=O)c1c(-c2cnc3ccc(-c4ccc(F)c(O[C@@H](C)Cn5cnnn5)c4)nn23)cnn1CCCOC` [compound 235], the IC50 is more than 100 nM.

For the molecule `COCCCn1ncc(-c2cnc3ccc(-c4ccc(F)c(O[C@@H](C)Cn5cnnn5)c4)nn23)c1C(=O)N(C)C` [compound 236], the IC50 was more than 100 nM.

For `COCCCn1ncc(-c2cnc3ccc(-c4ccc(F)c(O[C@@H](C)Cn5cnnn5)c4)nn23)c1C(=O)NCCOC` [compound 237], the IC50 was more than 100 nM.

For `COC(=O)c1sccc1-c1cnc2ccc(-c3ccc(F)c(O[C@@H](C)Cn4cnnn4)c3)nn12` [compound 238], the IC50 lay in the range of 10 to 100 nM.

In the case of `COc1cc(-c2cnc3ccc(-c4ccc(F)c(O[C@@H](C)Cn5cnnn5)c4)nn23)c(C#N)cn1` [compound 240], the IC50 was less than 10 nM.

Take `C[C@@H](Cn1cnnn1)Oc1cc(-c2ccc3ncc(-c4cc(=O)[nH]cc4C#N)n3n2)ccc1F` [compound 241]: the IC50 is less than 10 nM.

In the case of `C[C@@H](Cn1cnnn1)Oc1cc(-c2ccc3ncc(-c4cc(=O)n(C)cc4C#N)n3n2)ccc1F` [compound 242], the IC50 was less than 10 nM.

With `C[C@@H](Cn1cnnn1)Oc1cc(-c2ccc3ncc(-c4ccsc4C(=O)O)n3n2)ccc1F` [compound 243], the IC50 is more than 100 nM.

`CNC(=O)c1sccc1-c1cnc2ccc(-c3ccc(F)c(O[C@@H](C)Cn4cnnn4)c3)nn12` [compound 245]: the IC50 was in the range of 10 to 100 nM.

Take `C[C@@H](Cn1cnnn1)Oc1cc(-c2ccc3ncc(-c4cc(F)ccc4C#N)n3n2)ccc1F` [compound 246]: the IC50 is less than 10 nM.

With `C[C@@H](Cn1cnnn1)Oc1cc(-c2ccc3ncc(-c4cccnc4C#N)n3n2)ccc1F` [compound 248], the IC50 was less than 10 nM.

For `COc1ccc(-c2cnc3ccc(-c4ccc(F)c(O[C@@H](C)Cn5cnnn5)c4)nn23)c(C#N)n1` [compound 249], the IC50 was less than 10 nM.

For `C[C@@H](Cn1cnnn1)Oc1cc(-c2ccc3ncc(-c4ccn5ccnc5c4C#N)n3n2)ccc1F` [compound 250], the IC50 is less than 10 nM.

Turning to `C[C@@H](Cn1cnnn1)Oc1cccc(-c2ccc3ncc(-c4ccc[nH]c4=O)n3n2)c1` [compound 252, 3-[6-(3-{[(2S)-1-(1H-tetrazol-1-yl)propan-2-yl]oxy}phenyl)imidazo[1,2-b]pyridazin-3-yl]-1,2-dihydropyridin-2-one], the IC50 is less than 10 nM.

In the case of `COCCn1cccc(-c2cnc3ccc(-c4cccc(O[C@@H](C)Cn5cnnn5)c4)nn23)c1=O` [compound 254], the IC50 was less than 10 nM.
